This is an account of results in patent US8778966B2, “Quinolinone derivatives as PARP and tank inhibitors” (Janssen Pharmaceutica, NV, priority 2007, dated 2014).

One assay addresses T1, Human PARP-1 enzyme (Homo sapiens, UniProt P09874).
T1 construct: purchased Trevigen
The assay is described as follows: In vitro Scintillation Proximity Assay (SPA) for PARP-1 inhibitory activity. The assay is classed as biochemical. Particulars: read-out: in vitro SPA assay PARP-1 pIC50 (converted). The procedure: Compounds of the present invention were tested in an in vitro assay based on SPA technology (proprietary to GE healthcare).
In principle, the assay relies upon the well established SPA technology for the detection of poly(ADP-ribosyl)ation of biotinylated target proteins, i.e histones. This ribosylation is induced using nicked DNA activated PARP-1 enzyme and [^3H]-nicotinamide adenine dinucleotide ([^3H]-NAD^+) as ADP-ribosyl donor.
Histones (type II-A, supplier: Sigma) were biotinylated using the biotinylation kit of Amersham and stored aliquoted at −20° C. A stock solution of 100 mg/ml SPA poly(vinyl toluene) (PVT) beads (supplier: Amersham) was made in PBS. A stock solution of 61.6 nM [^3H]-NAD^+ was made by adding [^3H]-NAD^+ (0.1 mCi/ml, supplier: Perkin Elmer) to incubation buffer (50 mM Tris/HCl, pH 8; 0.2 mM DTT; 4 mM MgCl2). A solution of 4 mM NAD^+ (supplier: Sigma) was made. Human PARP-1 enzyme was obtained from Trevigen. Biotinylated histones and PVT-SPA beads were mixed and pre-incubated for 30 min. at room temperature. PARP-1 enzyme (concentration was lot dependent) was mixed with the nicked DNA and the mixture was pre-incubated for 30 min. at 4° C. Equal parts of this histones/PVT-SPA beads solution and PARP-1 enzyme/DNA solution were mixed and 75 μl of this mixture together with 1 μl of compound in DMSO and 25 μl of [^3H]-NAD^+ was added per well into a 96-well microtiterplate. The final concentrations in the incubation mixture were 2 μg/ml for the biotinylated histones, 2 mg/ml for the PVT-SPA beads, 0.25 μg/ml for the nicked DNA and between 0.1-0.2 μg/ml for the PARP-1 enzyme. After incubation of the mixture for 20 min. at room temperature, the reaction was terminated by adding 100 μl of 4 mM NAD^+ in water (final concentration 2 mM) and plates were mixed. The beads were sedimented by centrifugation (10 min, 800 rpm). and plates transferred to a TopCountNXT™ (Packard) for scintillation counting, values were expressed as counts per minute (cpm). For each experiment, controls (containing PARP-1 enzyme and DMSO without compound), a blank incubation (containing DMSO but no PARP-1 enzyme, no DNA or compound) and samples (containing PARP-1 enzyme, DNA and compound dissolved in DMSO) were run in parallel. All compounds tested were dissolved and eventually further diluted in DMSO. A dose-response curve was made wherein the compounds were tested at concentrations between 10^−5M and 3×10^−9M. In each test, the blank value was subtracted from both the control and the sample values. The control sample represented maximal PARP-1 enzyme activity. For each sample, the amount of cpm was expressed as a percentage of the mean cpm value of the controls. When appropriate, IC50-values (concentration of the drug, needed to reduce the PARP-1 enzyme activity to 50% of the control) were computed using linear interpolation between the experimental points just above and below the 50% level. Herein the effects of test compounds are expressed as pIC50 (the negative log value of the IC50-value). As a reference compound, 4-amino-1,8-naphthalimide was included to validate the SPA assay.
(SPA uses beads or plates that emit light when radiolabelled molecules are held near them.)

The next assay deals with HCT116 cells. The assay is described as follows: Antiproliferative activity, Alamar Blue assay, HCT116 cells. The assay is classed as cell-based, human. The settings on record: Homo sapiens, HCT-116, HCT116 cells; read-out: HCT116 antiproliferative activity pIC50 (converted). The procedure:
Human colon carcinoma HCT116 cells obtained from the ATCC were cultured in McCoy's 5 A medium supplemented with 2 mM L-Glutamine, 50 μg/ml gentamicin and 10% heat inactivated fetal calf serum.
(§1) Resazurin was purchased from Aldrich (Prod. No. 199303). Potassium ferrocyanide, potassium ferricyanide, KH2PO4 and K2HPO4 were purchased from Sigma (Prod. Nos. P9387, P8131, P5655 and P8281, respectively).
(§2) Potassium Phosphate Buffer 0.1 M (PPB) was made as follows: 2.72 gram KH2PO4 and 13.86 gram K2HPO4 were dissolved in 500 ml milli-Q H2O, the pH was adjusted to pH 7.4 and the volume was brought to 1 litre with milli-Q H2O; the buffer was filter sterilised and stored at room temperature. Resazurin stock solution (PPB-A) was prepared fresh by dissolving 45 mg resazurin in 15 ml PBS. 30 mM potassium ferricyanide (PPB-B) was prepared by dissolving 0.987 gram potassium ferricyanide in 100 ml PPB. 30 mM potassium ferrocyanide (PPB-C) was prepared by dissolving 1.266 gram potassium ferrocyanide in 100 ml PPB.
(§3) Mixture of PPB-A, PPB-B and PPB-C was prepared by mixing equal volumes of the respective solutions. Resazurin work solution (herein termed “Alamar Blue” solution) was prepared by diluting said mixture 20×(vol/vol) in PPB and filter sterilising; the Alamar Blue solution could be kept at 4° C. for a maximum of 2 weeks.
(§4) For experiments in 384 wells plates the cells were seeded at a density of 4.5×10^3 cells/ml in Falcon 384-well culture plates (Life Technologies, Merelbeke, Belgium), black with clear bottom, in 45 μl culture medium. Cells were allowed to adhere to plastic for 24 hr. The tested compound was pre-diluted (1/50 in culture medium) and 5 μl pre-diluted compound was added to the wells. Following 4-day incubation, 10 μl of the Alamar Blue solution was added to each well and the cells were further incubated for 4 hrs (HCT116) or 24 hrs (PC-3) at 37° C. The fluorescence intensity was measured for each well on a Fluorescence plate reader (Fluorskan, Labsystems, 540 nm excitation and 590 nm emission)
(§5) The antiproliferative activity was calculated as percentage of remaining viable cells in treated versus control (untreated cells) conditions. Within an experiment, the result for each experimental condition is the mean of 3 replicate wells. When appropriate, the experiments were repeated to establish full concentration-response curves. When appropriate, IC50-values (concentration of the drug, needed to reduce cell growth to 50% of the control) were computed using probit analysis for graded data (Finney, D. J., Probit Analyses, 2nd Ed. Chapter 10, Graded Responses, Cambridge University Press, Cambridge 1962). Herein the effects of test compounds are expressed as pIC50 (the negative log value of the IC50-value) (see Table 2).
For orientation: The colour change of resazurin is a common sign of viable cells or microbes.

In another assay the test system is PC3 cells. The assay is described as follows: EB1 Comet (microtubule disruption) assay. The settings on record: Homo sapiens, PC-3, 1 h, 1 hour treatment, read-out: EB1 pLAC (converted). The assay is classed as cell-based, human. Here is the method:
The Eb1 Comet assay relies on the detection of the Eb1 protein at the plus end of polymerizing microtubules (Mimori-Kiyosue, 2000) using indirect immunofluorescence. Disruption of microtubule dynamics through de-polymerization or stabilization results in a de-localization of Eb1 from the growing microtubule ends and this is visualized by the disappearance of Eb1 containing cytoplasmic foci.
Briefly, human prostate cancer PC3 cells obtained from the American Type Culture Collection were grown in 96-well plates (Greiner, cat. no. 655090) in HAM's F12 medium as recommended by the provider (ATCC). The cells were treated for 1 hour at 37° C. with compounds dissolved in DMSO (0.6% final DMSO concentration). The culture medium was then removed by aspiration and the cells were fixed by adding cold methanol (−20 C). After a 15 min. incubation at −20 C, the cells were washed twice with DPBS (Gibco) containing 0.5% Triton X-100. Mouse Eb1 antibody (BD Transduction Laboratories, cat. no. 610534) was added to the cells (1/250 dilution in DPBS containing 1% BSA) and incubated overnight at room temperature. The antibody was subsequently removed and the cells washed twice with DPBS, 0.5% Triton X-100. Secondary goat anti-mouse antibody conjugated to Alexa 488 fluorescent dye (Molecular Probes) was added at a 1/500 dilution in DPBS, 1% BSA and incubated for 1 hour at 37 C. The cells were washed twice with DPBS, 0.5% Triton X-100 and then DPBS containing 0.5% Triton X-100 and 1/5000 Hoechst 33342 (Molecular Probes) was added. Microscopy based Eb1 foci visualization was carried out using an IN Cell Analyser 1000 (Amersham Biosciences) using a 20× objective. Compound dependent microtubule disruption was visually determined by the disappearance in Eb1 foci. The lowest active concentration (LAC) was determined as the concentration where Eb1 foci were absent in at least 50% of the treated cells.

The next assay deals with PC-3 cells. The assay is described as follows: Antiproliferative activity, Alamar Blue assay, PC-3 cells. The assay is classed as cell-based, human. The settings on record: Homo sapiens, PC-3, PC3 cells; read-out: PC3 antiproliferative activity pIC50 (converted). The procedure:
Human prostate cancer PC-3 cells obtained from the ATCC were cultured in HAM′S F12 medium supplemented with 1 mM Sodium Pyruvate, 1.5 g/L Sodium Bicarbonate, 50 μg/ml gentamicin, non-essential amino acids and 10% fetal calf serum.
as §1, §2, §3, §4, §5

In a further assay the target is T2, TANK-2 enzyme (Homo sapiens, UniProt Q9H2K2).
T2 construct: made in house
T2 sequence (Q9H2K2 1-1166): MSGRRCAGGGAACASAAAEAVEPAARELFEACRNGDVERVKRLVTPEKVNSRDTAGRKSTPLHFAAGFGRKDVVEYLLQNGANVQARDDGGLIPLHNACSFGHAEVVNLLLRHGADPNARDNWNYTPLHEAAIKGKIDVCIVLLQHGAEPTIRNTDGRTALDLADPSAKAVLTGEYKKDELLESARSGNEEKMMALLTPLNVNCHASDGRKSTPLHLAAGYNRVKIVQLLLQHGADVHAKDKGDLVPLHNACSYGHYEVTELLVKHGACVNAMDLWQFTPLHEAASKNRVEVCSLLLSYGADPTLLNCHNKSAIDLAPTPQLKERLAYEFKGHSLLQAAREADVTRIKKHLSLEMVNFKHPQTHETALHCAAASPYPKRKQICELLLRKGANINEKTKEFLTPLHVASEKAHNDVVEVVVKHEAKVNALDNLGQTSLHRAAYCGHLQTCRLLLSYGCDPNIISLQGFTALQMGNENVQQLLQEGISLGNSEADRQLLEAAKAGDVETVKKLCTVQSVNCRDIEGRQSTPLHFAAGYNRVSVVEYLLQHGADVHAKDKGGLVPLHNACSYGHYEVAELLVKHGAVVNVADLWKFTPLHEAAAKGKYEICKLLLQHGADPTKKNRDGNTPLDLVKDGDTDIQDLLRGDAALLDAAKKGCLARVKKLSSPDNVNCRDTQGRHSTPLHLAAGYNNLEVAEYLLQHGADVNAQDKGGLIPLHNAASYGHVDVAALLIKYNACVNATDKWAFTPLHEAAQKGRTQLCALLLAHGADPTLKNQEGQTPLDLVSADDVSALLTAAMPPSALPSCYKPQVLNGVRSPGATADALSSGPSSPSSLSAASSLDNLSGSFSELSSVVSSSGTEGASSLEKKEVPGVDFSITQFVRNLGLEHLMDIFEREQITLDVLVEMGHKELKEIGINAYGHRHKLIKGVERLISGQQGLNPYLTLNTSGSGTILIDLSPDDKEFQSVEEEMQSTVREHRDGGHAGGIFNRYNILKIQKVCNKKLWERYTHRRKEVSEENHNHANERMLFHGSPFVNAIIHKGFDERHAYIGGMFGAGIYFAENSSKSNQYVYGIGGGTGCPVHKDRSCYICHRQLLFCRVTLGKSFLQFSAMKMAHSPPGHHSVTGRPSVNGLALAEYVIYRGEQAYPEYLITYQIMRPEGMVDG
The assay is described as follows: In vitro Scintillation Proximity Assay (SPA) for TANK-2 inhibitory activity. Particulars: read-out: in vitro SPA assay TANK-2 pIC50 (converted). The assay is classed as biochemical. Here is the method: Compounds of the present invention were tested in an in vitro assay based on SPA technology with Ni Flash plates (96 or 384 well). In principle, the assay relies upon SPA technology for the detection of auto-poly(ADP-ribosyl)ation of TANK-2 protein using [^3H]-nicotinamide adenine dinucleotide ([^3H]-NAD^+) as ADP-ribosyl donor.
A stock solution of 100 nM [3H]-NAD^+/NAD (0.1 mCi/ml, supplier: Perkin Elmer) and 0.25 μM NAD (Sigma) was made in assay buffer (60 mM Tris/HCl, pH 7.4; 0.9 mM DTT; 6 mM MgCl2). The TANK-2 enzyme was produced as described in EP1238063. 60 μl of assay buffer, together with 1 μl of compound in DMSO, 20 μl of [^3H]-NAD^+/NAD and 20 μl of TANK-2 enzyme (final concentration 8 μg/ml) was added per well into a 96-well Ni-coated flash plate (Perkin Elmer). After incubation of the mixture for 120 min. at room temperature, the reaction was terminated by adding 60 μl of stopsolution (42.6 mg NAD in 6 ml H2O). The plates were covered with a plate sealer and placed in a TopCountNXT™ (Packard) for scintillation counting. Values were expressed as counts per minute (cpm). For each experiment, controls (containing TANK-2 enzyme and DMSO without compound), a blank incubation (containing DMSO but no TANK-2 enzyme or compound) and samples (containing TANK-2 enzyme and compound dissolved in DMSO) were run in parallel. All compounds tested were dissolved and eventually further diluted in DMSO. In first instance, compounds were tested at a concentration of 10^−5M. […] In each test, the blank value was subtracted from both the control and the sample values. The control sample represented maximal TANK-2 enzyme activity. For each sample, the amount of cpm was expressed as a percentage of the mean cpm value of the controls. When appropriate, IC50-values (concentration of the drug, needed to reduce the TANK-2 enzyme activity to 50% of the control) were computed using linear interpolation between the experimental points just above and below the 50% level. Herein the effects of test compounds are expressed as pIC50 (the negative log value of the IC50-value). As reference compounds, 3-aminobenzamide and 4-amino-1,8-naphtalimide were included to validate the SPA assay. Herein the assay was described using 96-well plates. In the assay using 384-well plates the same final concentrations were used and volumes were adapted.

T1 sequence (P09874 whole entry): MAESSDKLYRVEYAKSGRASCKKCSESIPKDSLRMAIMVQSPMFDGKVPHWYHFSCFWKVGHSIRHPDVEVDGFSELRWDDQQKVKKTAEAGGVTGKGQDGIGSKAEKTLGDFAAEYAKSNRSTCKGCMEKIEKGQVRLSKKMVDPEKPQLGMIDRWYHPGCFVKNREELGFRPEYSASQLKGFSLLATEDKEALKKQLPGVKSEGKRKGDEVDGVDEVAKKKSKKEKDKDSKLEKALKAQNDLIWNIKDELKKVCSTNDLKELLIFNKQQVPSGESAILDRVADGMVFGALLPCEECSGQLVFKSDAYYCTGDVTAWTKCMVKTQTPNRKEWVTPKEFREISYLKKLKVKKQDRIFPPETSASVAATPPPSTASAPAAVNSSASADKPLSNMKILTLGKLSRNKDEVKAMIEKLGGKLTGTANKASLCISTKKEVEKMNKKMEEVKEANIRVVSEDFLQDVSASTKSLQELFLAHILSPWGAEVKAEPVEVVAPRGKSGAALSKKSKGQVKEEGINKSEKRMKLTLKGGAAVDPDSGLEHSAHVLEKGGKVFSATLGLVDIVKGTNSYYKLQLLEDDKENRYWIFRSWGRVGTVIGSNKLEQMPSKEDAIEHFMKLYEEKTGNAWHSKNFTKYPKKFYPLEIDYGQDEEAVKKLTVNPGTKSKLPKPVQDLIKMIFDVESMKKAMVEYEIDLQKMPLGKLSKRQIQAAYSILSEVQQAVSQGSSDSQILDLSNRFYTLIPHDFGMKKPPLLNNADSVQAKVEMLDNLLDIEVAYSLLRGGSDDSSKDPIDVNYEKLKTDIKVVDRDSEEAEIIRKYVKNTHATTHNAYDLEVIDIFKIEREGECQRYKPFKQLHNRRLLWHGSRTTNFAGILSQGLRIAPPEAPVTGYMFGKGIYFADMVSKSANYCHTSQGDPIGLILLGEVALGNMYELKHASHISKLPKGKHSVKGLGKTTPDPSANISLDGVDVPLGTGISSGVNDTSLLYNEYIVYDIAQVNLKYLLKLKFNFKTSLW

Take `Cc1cc2ccc([C@](C)(C#N)[C@H]3CCc4cc(Br)ccc43)cc2[nH]c1=O` [Compound 239]: the IC50 at Human PARP-1 enzyme was 501 nM; in the assay on HCT116 cells it was 2000 nM; in the assay on PC-3 cells it was 2510 nM. In addition, the minimal effective concentration in the assay with PC3 cells was 1 µM.

Regarding `Cc1cc2ccc([C@@](C)(C#N)[C@H]3CCCc4ccccc43)cc2[nH]c1=O` [Compound 384], the IC50 at Human PARP-1 enzyme is 50.1 nM; on TANK-2 enzyme, 1000 nM.

`Cc1cc2ccc([C@@](C)(C#N)[C@@H]3CCc4ccc(Br)cc43)cc2[nH]c1=O` [Compound 408]: the results for the IC50 at Human PARP-1 enzyme, in the assay on HCT116 cells and in the assay on PC-3 cells were 251 nM, 5010 nM and 10000 nM, respectively.
